Results: ChEMBL document CHEMBL1201862, “PubChem BioAssay data set” (2004)
Active and inactive are the calls of the source.

Legend:
[1] = biological target: 26S proteasome non-ATPase regulatory subunit 14 (Homo sapiens, UniProt O00487); assay: inhibition of proteasome subunit RPN11 – biochemical, fluorescence polarization, uHTS hits, confirmation (AID 602368); assay type: functional
Prothrombin = Prothrombin (Bos taurus, UniProt P00735); assay: thrombin protease inhibitors – biochemical, fluorescence polarization, uHTS hits, dose response (AID 602369); assay type: functional
[2] = biological target: T1, Low molecular weight phosphotyrosine protein phosphatase (Homo sapiens, UniProt P24666); assay type: functional; settings: read-out: IC50_Mean
T1 sequence (P24666 whole entry): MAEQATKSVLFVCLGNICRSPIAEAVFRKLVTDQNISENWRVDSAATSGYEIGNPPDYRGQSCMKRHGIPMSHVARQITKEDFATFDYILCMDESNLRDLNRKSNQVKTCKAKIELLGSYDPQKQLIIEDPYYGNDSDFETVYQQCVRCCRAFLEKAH

[3] = biological target: 72 kDa type IV collagenase (Homo sapiens, UniProt P08253); assay: Dose Response validation of uHTS RPN11 inhibitor hits using a MMP-2 Fluorescence assay.; assay type: functional
Sequence of 72 kDa type IV collagenase (P08253 whole entry): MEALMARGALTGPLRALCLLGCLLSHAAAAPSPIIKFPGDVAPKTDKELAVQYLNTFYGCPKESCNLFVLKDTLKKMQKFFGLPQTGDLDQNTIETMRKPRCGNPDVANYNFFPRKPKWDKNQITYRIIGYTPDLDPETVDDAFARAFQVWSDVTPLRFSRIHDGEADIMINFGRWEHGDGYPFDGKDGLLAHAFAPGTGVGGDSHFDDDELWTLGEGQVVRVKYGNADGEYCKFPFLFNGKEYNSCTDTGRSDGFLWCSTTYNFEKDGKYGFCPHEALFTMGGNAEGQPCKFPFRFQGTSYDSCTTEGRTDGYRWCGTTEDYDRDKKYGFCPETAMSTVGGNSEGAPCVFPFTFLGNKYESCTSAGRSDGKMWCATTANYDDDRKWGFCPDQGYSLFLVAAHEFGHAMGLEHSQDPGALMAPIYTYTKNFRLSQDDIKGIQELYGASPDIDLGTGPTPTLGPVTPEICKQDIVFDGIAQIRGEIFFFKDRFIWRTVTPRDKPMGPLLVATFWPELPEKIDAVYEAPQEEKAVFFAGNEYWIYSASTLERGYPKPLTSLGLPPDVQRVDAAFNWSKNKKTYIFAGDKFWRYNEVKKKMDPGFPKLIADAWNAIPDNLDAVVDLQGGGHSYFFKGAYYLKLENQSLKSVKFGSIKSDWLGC

[4] = biological target: T1, Low molecular weight phosphotyrosine protein phosphatase; assay type: functional; settings: read-out: IC50_Mean; remark: listed apart in the source
[5] = biological target: Aryl hydrocarbon receptor (Homo sapiens, UniProt P35869); settings: Potency;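 note: confirmatory quantitative high-throughput screen measuring activation of the AhR signaling pathway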
Sequence of Aryl hydrocarbon receptor (P35869 whole entry): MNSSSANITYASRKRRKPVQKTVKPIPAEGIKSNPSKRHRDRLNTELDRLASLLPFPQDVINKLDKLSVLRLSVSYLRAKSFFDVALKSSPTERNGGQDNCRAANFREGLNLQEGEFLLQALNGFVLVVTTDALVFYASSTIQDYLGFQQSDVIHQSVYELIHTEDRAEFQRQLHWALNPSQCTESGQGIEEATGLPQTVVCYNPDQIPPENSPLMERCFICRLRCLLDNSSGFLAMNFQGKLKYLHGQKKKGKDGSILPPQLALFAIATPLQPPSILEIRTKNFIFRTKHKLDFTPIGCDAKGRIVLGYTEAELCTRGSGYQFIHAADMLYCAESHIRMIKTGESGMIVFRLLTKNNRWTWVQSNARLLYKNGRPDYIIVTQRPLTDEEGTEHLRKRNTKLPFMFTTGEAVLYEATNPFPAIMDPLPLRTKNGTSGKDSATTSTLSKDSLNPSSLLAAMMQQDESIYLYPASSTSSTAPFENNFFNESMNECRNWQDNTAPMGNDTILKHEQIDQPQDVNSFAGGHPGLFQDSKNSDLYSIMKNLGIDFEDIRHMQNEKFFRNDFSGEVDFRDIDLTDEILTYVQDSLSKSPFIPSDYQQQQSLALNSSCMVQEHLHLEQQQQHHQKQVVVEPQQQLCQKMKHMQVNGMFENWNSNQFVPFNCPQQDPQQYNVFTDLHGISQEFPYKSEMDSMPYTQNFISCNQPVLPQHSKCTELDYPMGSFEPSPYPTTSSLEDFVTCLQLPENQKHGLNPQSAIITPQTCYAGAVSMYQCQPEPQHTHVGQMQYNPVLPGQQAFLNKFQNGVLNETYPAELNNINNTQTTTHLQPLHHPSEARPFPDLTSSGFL

Interleukin-8 [6] = biological target: T2, Interleukin-8 (Homo sapiens, UniProt P10145); assay: Dose Response confirmation of uHTS small molecule hits for cystic fibrosis induced NFkb Inhibitors in a TNFa-induced IL8 counterscreen.; assay type: functional; settings: read-out: IC50_Mean
T2 sequence (P10145 whole entry): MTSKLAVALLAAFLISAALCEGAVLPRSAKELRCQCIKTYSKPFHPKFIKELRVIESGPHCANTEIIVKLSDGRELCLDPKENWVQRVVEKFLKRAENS

Interleukin-8 [7] = biological target: T2, Interleukin-8; assay: Dose Response confirmation of uHTS small molecule hits for cystic fibrosis induced NFkb Inhibitors in a PAF-induced IL8 counterscreen.; assay type: functional; settings: read-out: IC50_Mean
HeLa = assay: ATP-based viability loss in HeLa cells – cell-based, CellTiter-Glo luminescence, cherry-pick samples, cytotoxicity control for MITF activator project, dose response (AID 540259); assay type: functional; settings: Homo sapiens
Cytochrome P450 2C19 = Cytochrome P450 2C19 (Homo sapiens, UniProt P33261); assay: Cytochrome panel assay with activity outcomes. Panel member name: p450-cyp2c19 Compounds with AC50 equal or less than 10 uM are considered active; assay type: functional; settings: read-out: AC50
Sequence of Cytochrome P450 2C19 (P33261 whole entry): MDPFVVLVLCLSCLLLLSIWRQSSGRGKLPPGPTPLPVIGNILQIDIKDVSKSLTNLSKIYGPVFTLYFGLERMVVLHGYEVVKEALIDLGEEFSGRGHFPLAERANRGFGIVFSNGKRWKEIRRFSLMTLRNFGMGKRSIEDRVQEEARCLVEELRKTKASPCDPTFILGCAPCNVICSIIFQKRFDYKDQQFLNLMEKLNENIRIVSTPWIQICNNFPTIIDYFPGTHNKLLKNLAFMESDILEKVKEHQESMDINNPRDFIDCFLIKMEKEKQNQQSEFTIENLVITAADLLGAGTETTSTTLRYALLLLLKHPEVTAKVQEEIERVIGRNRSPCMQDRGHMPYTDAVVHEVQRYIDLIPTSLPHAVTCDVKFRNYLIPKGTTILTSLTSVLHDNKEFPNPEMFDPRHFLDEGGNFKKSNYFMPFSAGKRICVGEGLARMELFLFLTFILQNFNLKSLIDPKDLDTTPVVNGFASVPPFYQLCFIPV

[8] = biological target: Diacylglycerol lipase-beta (Mus musculus, UniProt Q91WC9); assay: Late stage assay provider results from the probe development effort to identify inhibitors of diacylglycerol lipase, beta (DAGLb): fluorescence-based dose-response biochemical gel-based competitive Activity-Based Protein Profiling (ABPP) inhibition of DAGLb in vitro.; assay type: functional
[9] = biological target: Hepatocyte nuclear factor 4-alpha (Homo sapiens, UniProt P41235); assay type: functional, cell-based;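 note: biochemical luminescence-based dose-response counterscreen measuring inhibition of HNF4 dimerization, run alongside a screen for blockers of ABHD5–perilipin-5 interaction; split luciferase complementation of HNF4 fusion proteins in cell lysate measuring dimerization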
Sequence of Hepatocyte nuclear factor 4-alpha (P41235 whole entry, the tested form may be a part): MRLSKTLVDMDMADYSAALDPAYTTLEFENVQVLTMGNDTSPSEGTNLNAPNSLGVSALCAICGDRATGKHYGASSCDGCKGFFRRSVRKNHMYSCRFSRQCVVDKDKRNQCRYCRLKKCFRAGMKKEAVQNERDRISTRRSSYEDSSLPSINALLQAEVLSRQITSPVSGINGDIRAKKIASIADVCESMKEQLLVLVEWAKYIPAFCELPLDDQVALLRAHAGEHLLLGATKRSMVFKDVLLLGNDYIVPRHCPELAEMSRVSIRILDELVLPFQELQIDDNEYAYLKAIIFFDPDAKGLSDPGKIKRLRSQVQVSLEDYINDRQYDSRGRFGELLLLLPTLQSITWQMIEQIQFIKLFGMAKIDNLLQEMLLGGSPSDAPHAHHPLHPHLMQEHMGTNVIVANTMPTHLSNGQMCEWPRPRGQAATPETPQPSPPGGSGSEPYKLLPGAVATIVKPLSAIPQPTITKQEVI

[10] = biological target: T3, DNA repair protein RAD52 homolog (Homo sapiens, UniProt P43351); assay type: functional, biochemical
T3 sequence (P43351 whole entry): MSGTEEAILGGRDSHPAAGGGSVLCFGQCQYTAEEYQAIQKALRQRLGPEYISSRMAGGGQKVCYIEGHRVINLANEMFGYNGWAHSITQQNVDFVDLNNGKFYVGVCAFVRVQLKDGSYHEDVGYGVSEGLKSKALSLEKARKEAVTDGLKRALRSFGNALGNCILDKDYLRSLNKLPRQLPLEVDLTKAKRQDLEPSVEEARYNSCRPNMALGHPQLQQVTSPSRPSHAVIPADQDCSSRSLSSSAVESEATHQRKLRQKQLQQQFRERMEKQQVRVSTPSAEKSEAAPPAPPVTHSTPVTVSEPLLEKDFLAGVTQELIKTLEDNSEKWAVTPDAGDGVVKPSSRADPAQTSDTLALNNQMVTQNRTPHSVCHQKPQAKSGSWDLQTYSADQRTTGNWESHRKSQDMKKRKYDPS

[11] = biological target: T4, Ubiquitin-conjugating enzyme E2 N (Homo sapiens, UniProt P61088); assay type: functional;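 note: Dose-response confirmation in a TR-FRET assay detecting UBC13-driven polyubiquitin chain formation, inhibition measured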
T4 sequence (P61088 whole entry): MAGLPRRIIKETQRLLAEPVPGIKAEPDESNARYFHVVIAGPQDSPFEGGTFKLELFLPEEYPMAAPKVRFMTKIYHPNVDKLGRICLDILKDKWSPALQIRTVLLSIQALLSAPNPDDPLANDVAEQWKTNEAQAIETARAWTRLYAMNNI

[12] = microbe, parasite or virus in culture; assay type: functional; settings: Mycobacterium tuberculosis
[13] = biological target: FAD-linked sulfhydryl oxidase ALR (Homo sapiens, UniProt P55789); assay: ALR-catalysed DTT oxidation blockers – biochemical, H2O2 detection, luminescence, cherry-pick, dose response (AID 493248)
Sequence of FAD-linked sulfhydryl oxidase ALR (P55789 whole entry): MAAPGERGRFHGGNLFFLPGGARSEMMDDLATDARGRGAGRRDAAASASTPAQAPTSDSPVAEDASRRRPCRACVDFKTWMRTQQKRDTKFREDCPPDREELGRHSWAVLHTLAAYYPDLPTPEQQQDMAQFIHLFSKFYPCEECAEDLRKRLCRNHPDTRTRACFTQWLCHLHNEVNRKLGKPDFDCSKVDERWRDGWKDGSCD

[14] = biological target: T5, Protein disulfide-isomerase (Homo sapiens, UniProt P07237); assay: inhibition of PDI-driven insulin aggregation – biochemical, turbidity, absorbance, cherry-picked samples, dose response (AID 602350); assay type: functional
T5 sequence (P07237 whole entry): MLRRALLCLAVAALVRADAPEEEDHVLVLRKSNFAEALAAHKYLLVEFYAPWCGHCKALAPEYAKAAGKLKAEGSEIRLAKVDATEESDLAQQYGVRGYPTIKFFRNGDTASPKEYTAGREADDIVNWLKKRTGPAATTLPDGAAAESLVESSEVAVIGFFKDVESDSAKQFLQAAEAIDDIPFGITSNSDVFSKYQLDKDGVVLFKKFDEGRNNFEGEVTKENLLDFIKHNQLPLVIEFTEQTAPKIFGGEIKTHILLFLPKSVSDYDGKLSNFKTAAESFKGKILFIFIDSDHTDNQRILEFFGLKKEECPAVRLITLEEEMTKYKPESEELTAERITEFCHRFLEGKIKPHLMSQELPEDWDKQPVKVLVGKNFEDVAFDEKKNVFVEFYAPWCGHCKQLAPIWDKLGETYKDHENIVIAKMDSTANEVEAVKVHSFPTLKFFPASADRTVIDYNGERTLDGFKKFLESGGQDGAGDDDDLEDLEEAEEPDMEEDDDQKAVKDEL

Protein Wnt-3a = Protein Wnt-3a (Mus musculus, UniProt P27467); assay: antagonism of Wnt3a pathway luciferase reporter – Wnt-LIGHT cells, luminescence, selectivity assay for Gli-SUFU antagonist project, dose response (AID 651570); assay type: functional; settings: read-out: IC50_Mean;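 note: Wnt-LIGHT reporter cells stimulated with conditioned medium from Wnt3a-producing cells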
Sequence of Protein Wnt-3a (P27467 whole entry): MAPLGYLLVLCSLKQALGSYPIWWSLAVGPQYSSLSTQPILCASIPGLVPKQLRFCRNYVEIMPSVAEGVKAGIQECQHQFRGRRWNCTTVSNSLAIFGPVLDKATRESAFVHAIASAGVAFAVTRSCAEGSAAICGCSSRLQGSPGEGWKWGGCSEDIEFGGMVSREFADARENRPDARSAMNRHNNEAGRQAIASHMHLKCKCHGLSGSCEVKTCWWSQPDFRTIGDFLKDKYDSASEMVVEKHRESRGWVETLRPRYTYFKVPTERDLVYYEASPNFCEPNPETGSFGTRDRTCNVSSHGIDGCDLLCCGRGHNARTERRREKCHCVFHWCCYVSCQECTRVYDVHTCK

[15] = biological target: T5, Protein disulfide-isomerase; assay: inhibition of PDI-mediated insulin reduction – biochemical, turbidity, absorbance, cherry-picked samples, set 2, dose response (AID 624274); assay type: functional
[16] = biological target: T6, ATP-dependent translocase ABCB1 (Homo sapiens, UniProt P08183); assay: P-gp JC-1 efflux blockade concentration-response – Jurkat-DNR cells, flow cytometry, set 2, dose response (AID 504569); assay type: functional; settings: read-out: EC50_MICROM_;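 note: potency of pump inhibitors that raise cellular JC-1 green fluorescence up to the nicardipine level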
T6 sequence (P08183 whole entry): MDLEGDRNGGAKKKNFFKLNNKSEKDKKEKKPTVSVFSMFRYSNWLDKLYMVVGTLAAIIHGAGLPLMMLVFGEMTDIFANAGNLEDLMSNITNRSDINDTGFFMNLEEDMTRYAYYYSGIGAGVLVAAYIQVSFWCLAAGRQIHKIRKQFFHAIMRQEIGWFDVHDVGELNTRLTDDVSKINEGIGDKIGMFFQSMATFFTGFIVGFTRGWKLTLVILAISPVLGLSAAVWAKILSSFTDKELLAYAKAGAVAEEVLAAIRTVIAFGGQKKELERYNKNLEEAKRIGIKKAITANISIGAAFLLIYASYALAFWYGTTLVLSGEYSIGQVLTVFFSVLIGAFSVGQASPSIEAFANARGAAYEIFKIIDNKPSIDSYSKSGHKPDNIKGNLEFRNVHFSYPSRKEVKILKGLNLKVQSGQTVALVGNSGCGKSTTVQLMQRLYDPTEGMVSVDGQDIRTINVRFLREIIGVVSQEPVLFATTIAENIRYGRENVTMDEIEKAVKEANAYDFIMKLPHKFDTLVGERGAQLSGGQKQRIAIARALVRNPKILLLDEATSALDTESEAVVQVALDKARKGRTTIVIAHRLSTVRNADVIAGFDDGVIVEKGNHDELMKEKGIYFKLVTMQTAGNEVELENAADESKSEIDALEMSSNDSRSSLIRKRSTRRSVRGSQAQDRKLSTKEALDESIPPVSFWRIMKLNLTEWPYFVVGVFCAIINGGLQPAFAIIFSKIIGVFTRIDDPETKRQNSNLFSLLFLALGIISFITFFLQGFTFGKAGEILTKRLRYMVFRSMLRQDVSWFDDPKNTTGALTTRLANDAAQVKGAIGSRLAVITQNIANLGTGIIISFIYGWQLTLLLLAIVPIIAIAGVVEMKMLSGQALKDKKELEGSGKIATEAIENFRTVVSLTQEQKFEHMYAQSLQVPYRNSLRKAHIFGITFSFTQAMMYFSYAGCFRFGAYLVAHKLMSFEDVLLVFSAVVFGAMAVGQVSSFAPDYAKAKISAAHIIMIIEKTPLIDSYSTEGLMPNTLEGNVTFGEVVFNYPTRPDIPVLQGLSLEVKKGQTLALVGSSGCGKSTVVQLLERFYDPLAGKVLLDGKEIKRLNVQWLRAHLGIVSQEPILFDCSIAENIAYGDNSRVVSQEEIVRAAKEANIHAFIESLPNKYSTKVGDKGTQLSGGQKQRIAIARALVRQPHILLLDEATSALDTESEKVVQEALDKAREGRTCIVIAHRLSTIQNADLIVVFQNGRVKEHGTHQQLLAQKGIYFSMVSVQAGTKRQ

[17] = biological target: T6, ATP-dependent translocase ABCB1; assay: inhibition of BCRP-mediated JC-1 efflux – Ig-MXP3 cells, flow cytometry, set 2, dose response (AID 504566); assay type: functional; settings: read-out: EC50_MICROM_;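 note: flow cytometry median green fluorescence of retained JC-1 dye; potency of efflux pump inhibition measured as rising substrate retention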
[18] = biological target: T7, RNA-binding protein pos-1 (Caenorhabditis elegans, UniProt G5EF15); assay: disruptors of C. elegans POS-1 RNA interaction – biochemical, fluorescence polarization, dose response (AID 1964);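 note: purified POS-1 fused to maltose binding protein made in E. coli; potency of compounds blocking POS-1 binding to fluorescent RNA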
T7 sequence (G5EF15 whole entry): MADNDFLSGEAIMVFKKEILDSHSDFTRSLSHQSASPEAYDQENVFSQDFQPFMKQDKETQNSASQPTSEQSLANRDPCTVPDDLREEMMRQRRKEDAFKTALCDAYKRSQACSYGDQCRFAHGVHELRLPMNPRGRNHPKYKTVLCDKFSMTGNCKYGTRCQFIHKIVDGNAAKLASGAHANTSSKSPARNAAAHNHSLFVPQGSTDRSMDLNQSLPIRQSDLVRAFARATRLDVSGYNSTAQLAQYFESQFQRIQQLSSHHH

Insulin-degrading enzyme [19] = biological target: T8, Insulin-degrading enzyme (Homo sapiens, UniProt P14735); assay: recombinant IDE activation, cell-free – biochemical, fluorescence polarization, counter-screen for IDE activator project, dose response (AID 588681)
T8 sequence (P14735 whole entry): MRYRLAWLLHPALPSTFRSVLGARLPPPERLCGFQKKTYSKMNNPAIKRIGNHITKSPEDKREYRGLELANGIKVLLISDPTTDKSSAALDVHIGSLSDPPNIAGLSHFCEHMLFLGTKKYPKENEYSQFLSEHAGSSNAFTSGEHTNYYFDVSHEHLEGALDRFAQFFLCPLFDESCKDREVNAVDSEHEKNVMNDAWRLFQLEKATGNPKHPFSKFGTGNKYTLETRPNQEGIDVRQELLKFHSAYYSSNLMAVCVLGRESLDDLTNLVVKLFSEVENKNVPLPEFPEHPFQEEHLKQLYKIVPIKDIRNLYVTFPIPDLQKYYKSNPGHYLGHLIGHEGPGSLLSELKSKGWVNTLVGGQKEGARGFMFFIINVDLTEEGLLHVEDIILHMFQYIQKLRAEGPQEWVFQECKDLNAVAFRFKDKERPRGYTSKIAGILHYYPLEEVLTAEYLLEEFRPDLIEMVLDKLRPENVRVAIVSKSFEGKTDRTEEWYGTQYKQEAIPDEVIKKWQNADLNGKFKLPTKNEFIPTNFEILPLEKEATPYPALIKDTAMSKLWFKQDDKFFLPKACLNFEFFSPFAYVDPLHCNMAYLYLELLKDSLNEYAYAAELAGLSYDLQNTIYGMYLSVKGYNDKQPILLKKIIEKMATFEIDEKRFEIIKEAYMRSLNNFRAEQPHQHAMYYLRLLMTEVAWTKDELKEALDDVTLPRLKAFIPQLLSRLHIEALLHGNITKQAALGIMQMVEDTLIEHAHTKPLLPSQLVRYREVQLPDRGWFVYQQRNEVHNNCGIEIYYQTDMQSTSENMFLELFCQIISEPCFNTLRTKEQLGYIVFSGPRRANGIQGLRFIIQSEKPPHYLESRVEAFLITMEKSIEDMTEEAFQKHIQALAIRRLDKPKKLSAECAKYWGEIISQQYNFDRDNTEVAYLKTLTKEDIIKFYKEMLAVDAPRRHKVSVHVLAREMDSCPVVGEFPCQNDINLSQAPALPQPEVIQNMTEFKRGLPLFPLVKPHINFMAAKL

Insulin-degrading enzyme [20] = biological target: T8, Insulin-degrading enzyme; assay: cellular IDE activation of Abeta substrate cleavage – fluorescence polarization, HEK cells, dose response (AID 588439); assay type: functional, cell-based
[21] = NIH-3T3 fibroblast cytotoxicity, dose response, cytotoxicity control, cell-based, fluorescence, Alamar Blue, secondary assay (AID 2327); assay type: functional;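 note: NIH-3T3 mouse fibroblasts cultured with fluconazole at 8 µg/mL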
[22] = NIH3T3 cell viability loss – ATP luminescence, mouse fibroblasts, counter-screen, dose response (AID 2010); assay type: functional, cell-based;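 note: cells exposed to compound for about 90 hours before reading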
[23] = Trypanosoma cruzi growth suppression in host cells – NIH3T3 host cells, beta-gal luminescence, confirmation (AID 2044); assay type: functional, cell-based;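 note: intracellular parasites grown in NIH/3T3 mouse fibroblasts as host cells; luminescent beta-galactosidase reporter signal from transgenic T. cruzi replicating inside host cells; inhibitors lower the luminescence signal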
cells [24] = assay type: functional, cell-based
Streptococcus = assay: GAS UMAA2166 growth inhibition – luminescence, BacTiterGlo, counter-screen for streptokinase expression inhibitor project, dose response (AID 1915); assay type: functional, organism-based;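 note: potency for reduction of bacterial viability or growth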
[25] = system: Streptococcus sp. 'group A'; assay: Streptococcus pyogenes SK(-)GAS viability under kanamycin – luminescence, BacTiterGlo, confirmation, counter-screen for streptokinase expression inhibitor project, dose response (AID 1900); assay type: functional, organism-based
[26] = HEK-293T viability loss after treatment – luminescence, T-cell screen hits, cytotoxicity control for TCR NF-kB inhibitor project, dose response (AID 489026); assay type: functional, cell-based;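 note: cells exposed to compound about 14 hours before the viability readout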
[27] = biological target: Heat shock protein HSP 90-alpha (Homo sapiens, UniProt P07900); assay type: functional, organism-based
[28] = fluconazole-exposed Candida albicans growth modulators – fluorescence, retest, confirmation (AID 2467); assay type: functional, cell-based
HEK293 [29] = assay: membrane integrity loss in HEK cells – cell-based, fluorescence, cytotoxicity control for IDE activator project, dose response (AID 588440); assay type: functional; settings: Homo sapiens;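 note: cytotoxicity by LDH release measuring loss of membrane integrity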
HEK293 [30] = assay: optical interference in Abeta FP readout, dose response, artefact control for IDE activator project, biochemical, fluorescence polarization (AID 588442); assay type: functional, cell-based; settings: Homo sapiens
cells [31] = assay type: functional, cell-based; remark: listed apart in the source

## COc1ccc(NC(=O)CCn2c(=S)[nH]c3ccccc3c2=O)cc1Cl
[1]
  IC50: 26.3 µM (active)
Prothrombin
  IC50: > 100 µM (inactive)
[2]
  IC50: 68.3 µM (inactive)
[3]
  IC50: 4.32 µM (active)
[4]
  IC50: 12 µM (active)

## CCCCOCC1CO1 (configuration not stated)
[5]
  AC50: 56.2 µM (inconclusive)

## O=C(Nc1cccc2[nH]ncc12)c1ccc(F)cc1
Interleukin-8 [6]
  IC50: > 79 µM (inactive)
Interleukin-8 [7]
  IC50: 13.8 µM (inactive)
HeLa
  AC50: 52.8 µM (active)
Cytochrome P450 2C19
  AC50: 14.1 µM (inconclusive)

## O=C(N1CCCCC1Cc1ccccc1)n1cc(-c2ccc(-c3ccccc3C(F)(F)F)cc2)nn1 (configuration not stated)
[8]
  IC50: 0.058 µM (active)

## CCSc1ccc2c(c1)N(CCCN1CCN(C)CC1)c1ccccc1S2
[9]
  IC50: 29.9 µM (inactive)
[10]
  AC50: 14.9 µM (active)
[11]
  IC50: > 20 µM (inactive)
[12]
  CC50: 16.3 µM (active)
[13]
  AC50: 1.09 µM (active)

## C[C@@H]1O[C@@H](Oc2c(-c3ccc(O)c(O)c3)oc3cc(O)cc(O)c3c2=O)[C@H](O)[C@H](O)[C@H]1O
[14]
  AC50: 5.59 µM (active)

## Cc1cc(Nc2ccc([N+](=O)[O-])cc2)c2ccccc2n1
Protein Wnt-3a
  IC50: 14.1 µM (active)

## C[C@H]1CN([C@@H](C)CO)C(=O)c2cccc(NS(C)(=O)=O)c2O[C@H]1CN(C)Cc1ccc(Oc2ccccc2)cc1
[15]
  AC50: 0.003 µM (active)
[14]
  AC50: < 0.003 µM (active)

## O=C(c1ccoc1)N1CCN(c2cc(-c3ccccc3)nc3cc(-c4cccc(Cl)c4)nn23)CC1
[16]
  EC50: 9.03 µM (active)
[17]
  EC50: 1 µM (active)

## O=C(N/N=C\c1c(O)ccc2ccccc12)c1cncc(Br)c1
[18]
  EC50: > 300 µM (not active)
Insulin-degrading enzyme [19]
  EC50: > 54.7 µM (inactive)
Insulin-degrading enzyme [20]
  EC50: > 54.7 µM (inactive)
[21]
  EC50: 8.52 µM (inconclusive)
[22]
  EC50: 7.07 µM (active)
[23]
  EC50: 0.792 µM (active)
Cells [24]
  EC50: 86.8 µM (active)
Streptococcus
  EC50: 3.59 µM (active)
[25]
  EC50: 1.4 µM (active)
[26]
  IC50: > 80 µM (inactive)
[27]
  AC50: 4.06 µM (active)
[28]
  EC50: 0.342 µM (active)
HEK293 [29]
  IC50: > 89.3 µM (inactive)
HEK293 [30]
  EC50: 12.4 µM (inactive)
Cells [31]
  EC50: 10.3 µM (active)
